Values joined by “and” are separate entries in the source; they are usually repeats but may differ in a detail not shown here. Identical values can stand only once. “Also recorded” adds a separate entry of the source.
How the values were obtained:
[1] = test system: hypoxanthine guanine phosphoribosyltransferase (Hprt) gene in mouse embryonic stem (ES) cells; test: ENU-induced Hprt-inactivating mutations, 6-TG selection, Protocol 2 (24-well plates); assay type: cell-based
Experimental: (§1) In the second protocol, actively growing ES cells were trypsinized and plated at two densities (1×10^5 and 0.5×10^5 cells/well) in 24-well tissue culture plates instead of T25 flasks. After a one-day preincubation period, cells were treated for 5 hours with 0.3 mg/ml or 0.4 mg/ml ENU (as described above) and subsequently treated as described in Table 2. [table]

[2] = literature statement; cited from earlier work
[3] = test system: Mouse ES cells (129/Sv+Tyr, +p); test: Survival of ES cells after 5 hour ENU treatment (colony counting); assay type: cell-based; conditions: for survival: 5 hours, counted after 3 days of culture
Experimental: Mouse ES cells (129/Sv+^Tyr, +^p) were used. Cells were grown in culture medium [MEM (Gibco) supplemented with 15% heat-inactivated fetal calf serum, LIF, and 10 μM β-mercaptoethanol. Cells were routinely grown on 100-mm petri dishes and cultivated at 37° C. in a humidified atmosphere of 5% CO2 in air. For subculturing, cells were disassociated with HBSS containing 0.25% trypsin and 0.02% EDTA. After a 3-minute incubation at room temperature, cells were resuspended in culture medium and cell numbers determined using a hemocytometer.
The plating efficiency was determined by plating 2×10^3 cells per 100-mm dish, fixing the cells after 6-days with methanol, staining with 0.01% crystal violet and scoring colonies. Colonies were scored for the calculation of plating efficiency as percent of the inoculated cell number. The plating efficiencies were approximately 20%.
In the first protocol, actively growing ES cells were trypsinized and plated at 5×10^5 cells per T25 flask and after 1 day preincubation treated for 5 hours with 0.3 mg/ml, 0.4 mg/ml or 0.5 mg/ml ENU (dissolved in medium without FCS by vigorous shaking and filter sterilization with 0.2 μm cellulose acetate filters immediately before use). Control cells and cells which had been treated with ENU were washed three times with PBS and the number of surviving cells determined after 3 days of culture in culture medium by plating 2,000 cells from control and from ENU-treated flasks and counting surviving colonies as described above. […] Surviving EA cells which had been treated with 0.3 mg/ml ENU were subcultured at 3:1 onto 60-mm petri dishes in the presence (set 1) and absence (set 2) of primary embryothic fibroblasts (PMEFs). ES cells grown on PMEFs (set 1) were cultured for 3 days, subcultured at 3:1 onto 60-mm petri dishes without PMEFs, trypsinized, plated at 4×10^5 cells per 100-mm plate without PMEFs and grown for 2 days. ES cells grown in the absence of PMEFs (set 2) were trypsinized-after 5 days in culture and plated at 4×10^5 cells per 100-mm plate without PMEFs. Cells (set 1 and set 2) were subsequently grown for 1 day prior to the addition of 10 μM 6-TG to the culture medium and further incubated for an additional 6 days in the presence of 6-TG. The number of 6-TG resistant colonies was calculated, and individual colonies were separately plated in a 96-well microtiter dish.
as §1, with “2.” for “2. [table]”

[4] = test system: hypoxanthine guanine phosphoribosyltransferase (Hprt) gene in mouse embryonic stem (ES) cells; test: ENU-induced Hprt-inactivating mutations, 6-TG selection, Protocol 1; assay type: cell-based; conditions: 0.3 mg/ml ENU

CCN(N=O)C(N)=O [ENU, N-ethyl-N-nitrosurea]
Total colonies ([1]; 0.3 mg/ml ENU, Plate 1): Total: 23 colonies | No. colonies/plate ([1]; 0.3 mg/ml ENU, Plate 1, day 16, individual 60-mm dishes): Plate 2: 3 colonies; also recorded: Plate 3: 5 colonies; also recorded: Plate 5: 1 colony colonies; also recorded: Plate 6: 1 colony colonies; also recorded: Plate 7: 2 colonies; also recorded: Plate 8: 2 colonies; also recorded: Plate 9: 4 colonies | plates that yielded colonies after 6-thioguanine ([1]; 0.3 mg/ml ENU, Plate 1, day 16, of 24 dishes): 9 plates yielded colonies, | Total colonies ([1]; 0.3 mg/ml ENU, Plate 2): Total: 12 colonies | No. colonies/plate ([1]; 0.3 mg/ml ENU, Plate 2, day 16, individual 60-mm dishes): Plate 2: 1 colony colonies; also recorded: Plate 3: 2 colonies; also recorded: Plate 4: 1 colony colonies; also recorded: Plate 5: 4 colonies; also recorded: Plate 6: 2 colonies | plates that yielded colonies after 6-thioguanine ([1]; 0.3 mg/ml ENU, Plate 2, day 16, of 24 dishes): 6 plates yielded colonies, | Mutation frequency maximum ([1]; 0.4 mg/ml ENU, Plate 4): 1/800 | Total colonies ([1]; 0.4 mg/ml ENU, Plate 4): Total: 22 colonies | No. colonies/plate ([1]; 0.4 mg/ml ENU, Plate 4, day 17, individual 60-mm dishes): Plate 1: 14 colonies; also recorded: Plate 2: 18 colonies | plates that yielded colonies after 6-thioguanine ([1]; 0.4 mg/ml ENU, Plate 4, day 17, of 24 dishes): 2 plates yielded colonies, 22 | efficiency in generating mutations relative to other agents [2]: at least 10 fold | survival ([3]; 0.3 mg/ml ENU): 10% | survival ([3]; 0.4 mg/ml ENU): less than 5% | colonies surviving ([3]; 0.4 mg/ml ENU, Plate 3, 5 days after plating, plate discarded): Discarded, very few | survival ([3]; 0.5 mg/ml ENU): 0% | Total colonies (+PMEF plates) ([4]; 10 μM 6-TG, sum of 6 plates): 21 | Total colonies (−PMEF plates) ([4]; 10 μM 6-TG, sum of 6 plates): 77 | Mutation Frequency Maximum (−PMEF plates) ([4]; Hprt locus): 1/623 | No. Surviving Colonies (−PMEF plates), 6-TG selection (Hprt deficient), per plate ([4]; set 2 grown without PMEFs, 10 μM 6-TG, plates 1-6): 14 and 15 and 12 and 9

Reference: patent publication US6835867B1, “Allelic series of genomic modifications in cells” (priority 1998, dated 2004)
